Data published in patent US20260373135A1, “Methods of Treatment with Tradipitant” (Vanda Pharmaceuticals Inc., priority 2022, published 2026).

Key:
[1] = Human metabolism of tradipitant in vitro and in vivo
From the text: Factors affecting metabolic clearance of tradipitant and its metabolites impact an individual's exposure to the parent compound, as well as any active metabolites.

[2] = molecular target: T1, CYP3A4 (Homo sapiens, UniProt P08684); assay: Role of CYP3A4 genotype (CYP3A4*22) in metabolism/clearance of tradipitant, phase III study pharmacokinetics; type: in vivo
Protocol: To investigate the role of CYP3A4 genotypes in the metabolism of tradipitant, pharmacokinetics are analyzed in view of CYP3A4 genotype in a phase III study of humans dosed with tradipitant. In the investigation, all CYP3A4 alleles (as recognized by the Human Cytochrome P450 Allele Nomenclature Database) are reviewed. The analysis includes a linear model that is tested on various ratios of parent compound (tradipitant) or its metabolites, including: • Ratio A=Sum of (M2+M3+M4)/M8, and • Ratio B=(tradipitant)/(M3).
After correction for covariates, including principal components (PCs), age, sex, and body mass index (BMI), CYP3A4*22 is identified as a variant of interest, with a p-value of 1×10^−5. […] The effect of multiple alleles of interest is cumulative, as shown by the median ratios present in individuals having a CYP3A4 genotype of *22/*1, i.e. heterozygous for the *22 variant of interest (*22 het), compared with individuals having a CYP3A4 genotype of *22/*22+*3/*1 genotype, i.e., homozygous for the *22 variant of interest.
The graphs shown in FIGS. 2A-2H illustrate the plasma concentrations of tradipitant (FIG. 2A), metabolite M2 (FIG. 2B), metabolite M3 (FIG. 2C), metabolite M4 (FIG. 2D), metabolite M8 (FIG. 2E), ratio of tradipitant to M8 (FIG. 2F), ratio of all metabolites to M8 (i.e., (M2+M3+M4)/M8) (FIG. 2G), and ratio of tradipitant to M3 (FIG. 2H) in individuals in a study population. […] This reflects the reduced ability to clear tradipitant in individuals having a *22 allele.
The apparent clearance of tradipitant is plotted for individuals having a wild type (WT) genotype as compared to individuals having a heterozygous *22 (*22 het) genotype. The ratio of clearance (CL) in *22 het to WT is calculated as exp (median (HET)-median (WT)). Below these calculations, the P value is reported for a t test comparing the ETA values. […] Post hoc ETAs are the following: log (individual value for clearance/typical value for clearance), where “typical value” is essentially the median value. […]

[3] = molecular target: T1, CYP3A4; assay: Co-administration of tradipitant with a CYP3A4 inhibitor; type: in vivo
Protocol: The method may further include administering tradipitant to the individual at a dose that is determined based upon whether or not a CYP3A4 inhibitor is co-administered with the tradipitant. In a case in which a CYP3A4 inhibitor is not being co-administered to the individual, the method includes administering tradipitant to the individual in a first amount, in a manner similar to the above-described case in which the individual has a CYP3A4 genotype associated with normal metabolism of tradipitant. However, in a case in which a CYP3A4 inhibitor is co-administered with tradipitant to the individual, then the method may include administering tradipitant to the individual in a second ament, where the second amount is smaller than the first amount, in a manner similar to the above-described case in which the individual has a CYP3A4 genotype that is associated with decreased metabolism of tradipitant relative to wildtype. In certain embodiments, the CYP3A4 inhibitor may be selected from amiodarone, aprepitant, cimetidine, ciprofloxacin, clarithromycin, diltiazem, erythromycin, fluconazole, grapefruit juice, itraconazole, ketoconazole, posaconazole, voriconazole, and verapamil. In particular embodiments, the CYP3A4 inhibitor may be considered a strong CYP3A4 inhibitor, and may be selected from: clarithromycin, itraconazole, ketoconazole, and posaconazole, or from ketoconazole and grapefruit juice.
As described above, in certain embodiments, the second, smaller amount of tradipitant may be about 60-90%, 60-85%, 60-80%, 60-75%, or 60-70% of the first amount; about 25-70%, 30-70%, 35-70%, 40-70%, 45-70%, 50-70%, 55-70%, or 60-70% of the first amount; about 35-95%, 40-90%, 50-80%, or 60-70% of the first amount; or about 66-68% of the first amount. The first amount is considered to be 100% of the amount that would be administered to an individual who is […] a CYP3A4 inhibitor with the tradipitant.
Therefore, the identification of an individual in need of treatment with tradipitant, who is or would be co-administered tradipitant and the CYP3A4 inhibitor, enables dosing with tradipitant in a manner that facilitates the desired exposure level of the patient to the parent compound and any active metabolites thereof. […]

[4] = co-administration with a CYP3A4 inhibitor

T1 sequence (P08684 whole entry): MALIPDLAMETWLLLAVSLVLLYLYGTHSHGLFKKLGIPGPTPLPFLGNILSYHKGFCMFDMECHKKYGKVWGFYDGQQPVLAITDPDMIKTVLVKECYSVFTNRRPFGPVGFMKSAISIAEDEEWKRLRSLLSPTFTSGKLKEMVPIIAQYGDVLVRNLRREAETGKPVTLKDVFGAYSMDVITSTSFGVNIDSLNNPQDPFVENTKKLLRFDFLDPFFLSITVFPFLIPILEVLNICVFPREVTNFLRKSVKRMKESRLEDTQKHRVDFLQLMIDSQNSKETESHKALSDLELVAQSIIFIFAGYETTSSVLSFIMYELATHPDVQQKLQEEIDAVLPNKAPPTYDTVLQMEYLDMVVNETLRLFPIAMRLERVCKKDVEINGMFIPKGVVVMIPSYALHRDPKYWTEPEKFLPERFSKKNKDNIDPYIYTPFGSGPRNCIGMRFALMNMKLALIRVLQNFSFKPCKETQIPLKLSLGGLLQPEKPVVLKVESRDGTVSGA

In the case of O=C(c1ccccc1Cl)c1cccnc1-c1nnn(Cc2cc(C(F)(F)F)cc(C(F)(F)F)c2)c1-c1ccncc1 [tradipitant, {2-[1-(3,5-Bistrifluoromethylbenzyl)-5-pyridin-4-yl-1H-[1,2,3]triazol-4-yl]-pyridin-3-yl}-(2-chlorophenyl)-methanone], the human metabolic pathways [1] is reported as “ketone reduction (metabolites M2, M4), N-glucuronidation (metabolite M8), pyridine N-oxidation (metabolites M3, M4), and glucuronidation (metabolite M8)”, the “reduction of tradipitant clearance in *22 heterozygotes” value ([2]; CYP3A4*22 heterozygotes vs wild type) is reported as 34% and the “median plasma concentration in *22 het vs wild type” value ([2]; CYP3A4*22 heterozygous vs wild type (*1/*1), plasma, FIGS. 2A-2D) is reported as “clearly greater median concentrations”. For the same compound, the “median ratio of tradipitant to M8 in *22 het vs wild type” value ([2]; CYP3A4*22 heterozygous vs wild type, plasma, FIG. 2F) was “clearly greater median ratio of tradipitant to M8”, the “exposure to tradipitant with CYP3A4 inhibitors” value ([3]; co-administration with CYP3A4 inhibitors, particularly strong) was “increased exposure to tradipitant” and the “decrease in apparent clearance” value [3, 4] was “about 26.3%”. For the same compound, the “increase in AUC” value [3, 4] was “about 36%” and the “increase in Cmax” value [3, 4] was “about 26%”.
